As usually defined, the LC50 is the concentration lethal to half of the exposed cells or organisms.

The values below come from patent publication US6337345B1, “Insecticidal or miticidal combinations containing chlorfenapyr” (American Cyanamid Co., priority 1996, dated 2002).

Common to all, as to format: in vivo
In series [1] the test system is female imagines of Kanzawa spider mite (Tetranychus kanzawai kishida) which had acquired a strong resistance to chlorfenapyr. Description: Miticidal effect on female imagines of chlorfenapyr-resistant Kanzawa spider mite, leaf disk spray test. On the procedure:
In this experiment, the miticidal effect against female imagines (adults) of Kanzawa spider mite (Tetranychus kanzawai kishida) which are registrant to chlorfenapyr is evaluated.
Round leaf disks (2 cm diameter) are cut out of a first leaf of kidney bean by a leaf punch and 4 sheets of the disks are placed on wet sanitary cotton in a plastic cup (8 cm diameter). On each leaf disk, 4 female imagines of Kanzawa spider mite (Tetranychus kanzawai kishida) which had acquired a strong resistance to chlorfenapyr are inoculated.
After the inoculation, chlorfenapyr and a compound(s) selected from group A are dispersed in water containing 200 ppm of an extender (Sorpol 3005X) and diluted such that a predetermined concentration of active ingredient is obtained. Each plastic cup is sprayed with 3.5 ml of a test solution with a rotary spray tower (Mizuho Scientific Co., Ltd.) and stored in a constant temperature chamber held at 25±1° C. (32 individuals are tested per concentration, 4−5 concentrations are evaluated per formulation, and 2 performances were repeated). Two days after treatment, the number of living and dead female imagines of Kanzawa spider mite (Tetranychus kanzawai kishida) which had acquired a strong resistance to chlorfenapyr is counted and the mortality (%) is calculated according the formula shown hereinbelow.
A co-toxicity coefficient is calculated by applying Sun and Johnson's formula (J. Econ. Ent., Vol 53, p. 887, […]) which is generally used to determine the degree of synergistic activity.
Co-toxicity coefficient=T^c [formula]
For T^c values greater than 100, the greater value indicates a stronger synergistic action. For a T^c value equal to 100, an additive action is indicated. For T^c values less than 100, the lesser value indicates a greater antagonistic action. A more detailed description of the calculation of the co-toxicity coefficient using the above-referenced Sun and Johnson formula follows.
The LC50 values of Test Compound A alone and Test Compound B alone and the LC50 value of the (A+B) mixture M is determined.
Actual toxicity index of mixture M=M^ti
Each LC50 value of effective ingredient A and effective ingredient B and the LC50 value of the mixture of A+B are used to determine the actual toxicity index as shown in the equation below. [formula]
Theoretical toxicity index of mixture M=Th.M^ti
Th.M^ti=(Toxicity index of A×%A in M+Toxicity index of B×%B in M)
Toxicity index of B=B^ti [formula]

Series [2] concerns susceptible strain of Kanzawa spider mite. Description: LC50 against susceptible strain of Kanzawa spider mite. An excerpt: By comparison, the LC50 value for chlorfenapyr against a susceptible strain of Kanzawa spider mite is about 5 ppm.
In series [3] the test system is female imagines of Kanzawa spider mite (Tetranychus kanzawai kishida) which had acquired a strong resistance to chlorfenapyr. As to the kind of experiment: Miticidal effect on female imagines of chlorfenapyr-resistant Kanzawa spider mite, leaf disk spray test. To be noted: resistant strain obtained by long artificial selection in the laboratory, compared with susceptible strain.

Setting [4] is: single test compound, chlorfenapyr-resistant strain, female imago, mortality two days after treatment, probit analysis.
The mark [5] stands for this setting: single test compound, chlorfenapyr-resistant strain.

In the case of `CCC(C)c1cc([N+](=O)[O-])cc([N+](=O)[O-])c1OC(=O)C=C(C)C` (stereo not drawn) [Binapacryl, 2,4-dinitro-6-sec-butylphenyldimethyl-acrylate], the LC50 in series [1] (setting [4]) stood at 180 ppm.

As for `CCOCCc1ccc(OCCNc2ncnc(CC)c2Cl)c(C)c1C` [Pyrimidifen, 5-chloro-N-{2-[2,3-dimethyl-4-(2-ethoxyethyl)phenoxy]ethyl}-6-ethyl-4-pyrimidinamine], the median lethal concentration (LC50) in series [1] (in vivo) is listed as 10 ppm. Moreover, the “miticidal effect (in words)” value in series [1] (setting [5]) is recorded as “high miticidal effect”.

`OC(c1ccc(Cl)cc1)(c1ccc(Cl)cc1)C(Cl)(Cl)Cl` [Kelthane (Dicofol)]: the “miticidal effect (in words)” value in series [1] (setting [5]) is reported as “high miticidal effect”. The median lethal concentration (LC50) in series [1] (setting [4]) amounted to 32 ppm.

Take `C/C1=C\C[C@@H]2C[C@@H](C[C@]3(CC[C@H](C)[C@@H](C)O3)O2)OC(=O)[C@@H]2CC[C@@H](O)[C@H]3OC/C(=C\C=C\[C@H](C)C1)[C@]32O` (mixture of isomers) [Milbemectin]: in series [1] (setting [4]), the 50% lethal concentration (LC50) amounted to 0.28 ppm.

`CC(C)OC(=O)C(O)(c1ccc(Br)cc1)c1ccc(Br)cc1` [Phenisobromalate, isopropyl 4,4′-dibromobenzilate]: the “miticidal effect (in words)” value in series [1] (setting [5]) is reported as “low effects”. Moreover, the LC50 in series [1] (setting [4]) is 280 ppm.

With `O=S(=O)(c1ccc(Cl)cc1)c1cc(Cl)c(Cl)cc1Cl` [Tetradifon, 2,4,5,4′-tetrachlorodiphenyisulfone], the “miticidal effect (in words)” value in series [1] (setting [5]) was “low miticidal effect”. Further, the LC50 in series [1] (setting [4]) was determined as 4900 ppm.

Turning to “dinitromethylheptylphenyl crotonate [DPC]”, in series [1] (setting [5]), the “miticidal effect (in words)” value was “low effects”. The LC50 in series [1] (setting [4]) is reported as 630 ppm.

Take `CCOCn1c(-c2ccc(Cl)cc2)c(C#N)c(Br)c1C(F)(F)F` [Chlorfenapyr, 4-bromo-2-(4-chloropheny)-1-(ethoxymethyl)-5-(trifuloromethyl)pyrrole-3-carbonitrile]: the LC50 entry in series [2] is “about 5 ppm”; in series [1] (setting [4]), 1500 ppm. Further, the “resistance to chlorfenapyr of the resistant strain” value in series [3] was ~300 fold.

On to `CN(C)C(=O)SCCCCOc1ccccc1` [Fenothiocarb, S-4-phenoxybutyl-dimethylthiocarbamate], for which the median lethal concentration (LC50) in series [1] (setting [4]) is on record as 1000 ppm.

For `Cc1ccc(N=CN(C)C=Nc2ccc(C)cc2C)c(C)c1` [Amitraz, 3-methyl-1,5-bis(2,4-xylyl)-1,3,5-triazapenta-1,4-diene], the “miticidal effect (in words)” value in series [1] (setting [5]) is given as “low effects”. In addition, the LC50 in series [1] (setting [4]) is recorded as 200 ppm.
